Results as given in DBAASP.
≈ marks a conversion by molar mass, not a printed value. One block for each compound: values may come before it.

What was measured:
Experiment in all cases: ≥ marks a high value that may be exact or a test limit, other limits are often not marked, values filed in µg/mL are converted to µM
[1] = test system: Acinetobacter calcoaceticus Ac11
[2] = test system: Bacillus subtilis ATCC 6051
Bacillus megaterium Bm11 = test system: Bacillus megaterium Bm11
[3] = test system: Salmonella enterica subsp. enterica serovar Typhimurium LT2
[4] = test system: Pseudomonas aeruginosa ATCC 27853
Escherichia coli D21 = test system: Escherichia coli D21
[5] = test system: Micrococcus luteus ATCC 9341
Escherichia coli JW0013 = test system: Escherichia coli JW0013
[6] = test system: Salmonella typhimurium SL1344
Acinetobacter baumannii = test system: Acinetobacter baumannii
Escherichia coli ML-35 = test system: Escherichia coli ML-35
[7] = test system: Salmonella enterica subsp. enterica serovar Typhimurium ATCC 14028
[8] = test system: Salmonella enterica subsp. enterica serovar Enteritidis MH91989
Burkholderia cepacia = test system: Burkholderia cepacia
[9] = test system: Staphylococcus epidermidis ATCC 12228
Escherichia coli J2210 = test system: Escherichia coli J2210
Escherichia coli = test system: Escherichia coli
Escherichia coli BW25113 = test system: Escherichia coli BW25113
[10] = test system: Escherichia coli ATCC 25922
[11] = test system: Bacillus subtilis DSM 4181
[12] = test system: Escherichia coli JW0368 ΔsbmA
[13] = test system: Enterococcus faecalis ATCC 29212
Escherichia coli MC1041 = test system: Escherichia coli MC1041
[14] = test system: Acinetobacter baumannii ATCC 19606
Pseudomonas aeruginosa = test system: Pseudomonas aeruginosa
[15] = test system: Escherichia coli JW2778 ΔygdD
[16] = test system: Serratia marcescens ATCC 8100
Escherichia coli HB101 = test system: Escherichia coli HB101
[17] = test system: Klebsiella pneumoniae ATCC 700603
Escherichia coli JJ2489 = test system: Escherichia coli JJ2489
[18] = test system: Salmonella enterica serovar Typhimurium
Klebsiella pneumoniae = test system: Klebsiella pneumoniae
[19] = test system: Staphylococcus aureus ATCC 25923
[20] = test system: Stenotrophomonas maltophilia ATCC 13637
Bacillus licheniformis = test system: Bacillus licheniformis
Bacillus anthracis = test system: Bacillus anthracis
[21] = test system: Bacillus cereus ATCC 14579
[22] = test system: Lactococcus lactis ATCC 11454
[23] = test system: Salmonella enterica subsp. enterica serovar Enteritidis ATCC 13076
Priestia flexa = test system: Priestia flexa
Serratia marcescens = test system: Serratia marcescens
Bacillus subtilis = test system: Bacillus subtilis
[24] = test system: Bacillus subtilis ATCC 6633
Enterobacter sp. = test system: Enterobacter sp.
[25] = test system: Lactiplantibacillus plantarum ATCC 8014
Staphylococcus aureus = test system: Staphylococcus aureus
[26] = test system: Bacillus megaterium KCTC 1096
Proteus vulgaris = test system: Proteus vulgaris
[27] = test system: Staphylococcus aureus KCTC 1621
[28] = test system: Escherichia coli KCTC 1682
[29] = test system: Bacillus subtilis KCTC 1918
[30] = test system: Pseudomonas aeruginosa KCTC 1637
[31] = test system: Candida albicans ATCC 18804

SMILES: CC[C@H](C)[C@H](NC(=O)[C@H](CCCCN)NC(=O)[C@@H]1CCCN1C(=O)[C@@H](NC(=O)[C@H](CC(C)C)NC(=O)[C@H](C)NC(=O)[C@H](Cc1ccccc1)NC(=O)[C@H](Cc1ccccc1)NC(=O)CN)[C@@H](C)CC)C(=O)N[C@H](C(=O)N[C@@H](CO)C(=O)O)[C@@H](C)CC [GFFALIPKIIS]
- MIC [1]: ≥ 100 µM
- MIC [2]: ≥ 100 µM
- MIC (Bacillus megaterium Bm11): ≥ 100 µM
- MIC [3]: ≥ 100 µM
- MIC [4]: > 100 µM
- MIC (Escherichia coli D21): ≥ 100 µM
- MIC [5]: ≥ 100 µM

SMILES: CC(C)C[C@H](NC(=O)[C@@H](NC(=O)[C@H](CO)NC(=O)[C@H](CC(C)C)NC(=O)[C@@H]1CCCN1C(=O)[C@H](CC(C)C)NC(=O)[C@H](CO)NC(=O)[C@H](CCCCN)NC(=O)[C@H](CO)NC(=O)[C@@H](N)Cc1ccc(O)cc1)C(C)C)C(=O)N[C@@H](CC(N)=O)C(=O)N1CCC[C@H]1C(=O)O [YSKSLPLSVLNP]
- MIC (Bacillus licheniformis): ≥ 97.2 µM
- MIC (Escherichia coli): 6.07 µM (≈ 8 µg/mL)
- MIC [10]: 6.07 µM (≈ 8 µg/mL)
- MIC (Bacillus anthracis): ≥ 97.2 µM
- MIC [21]: ≥ 48.6 µM
- MIC [22]: ≥ 97.2 µM
- MIC [23]: 3.04 µM (≈ 4 µg/mL)
- MIC [17]: 12.1 µM (≈ 16 µg/mL)
- MIC (Priestia flexa): 24.3 µM (≈ 32 µg/mL)
- MIC (Serratia marcescens): 24.3 µM (≈ 32 µg/mL)
- MIC (Bacillus subtilis): 24.3 µM (≈ 32 µg/mL)
- MIC [24]: 12.1 µM (≈ 16 µg/mL)
- MIC (Enterobacter sp.): 12.1 µM (≈ 16 µg/mL)
- MIC [25]: 24.3 µM (≈ 32 µg/mL)
- MIC [19]: 24.3 µM (≈ 32 µg/mL)
- MIC (Staphylococcus aureus): 48.6 µM (≈ 64 µg/mL)

Now from value to compound:

- MIC (Escherichia coli JW0013): 0.06 µM (≈ 0.125 µg/mL)
- MIC [6]: 0.06 µM (≈ 0.125 µg/mL)
- MIC (Acinetobacter baumannii): 5.66 µM (≈ 11.7 µg/mL)
- MIC (Escherichia coli ML-35): 2 µM (≈ 4.15 µg/mL)
- MIC [7]: 1 µM (≈ 2.08 µg/mL)
- MIC [8]: 0.12 µM (≈ 0.249 µg/mL)
- MIC (Burkholderia cepacia): ≥ 128 µM
- MIC [9]: > 64 µM
- MIC (Escherichia coli J2210): 0.12 µM (≈ 0.249 µg/mL)
- MIC (Escherichia coli): 8 µM (≈ 16.6 µg/mL)
- MIC (Escherichia coli BW25113): 0.06 µM (≈ 0.125 µg/mL)
- MIC [10]: 1 µM (≈ 2.08 µg/mL)
- MIC [11]: 1 µM (≈ 2.08 µg/mL)
- MIC [12]: 0.06 µM (≈ 0.125 µg/mL)
- MIC [13]: > 64 µM
- MIC (Escherichia coli MC1041): 0.06 µM (≈ 0.125 µg/mL)
- MIC [14]: 32 µM (≈ 66.4 µg/mL)
- MIC [4]: > 64 µM
- MIC (Pseudomonas aeruginosa): 90.5 µM (≈ 188 µg/mL)
- MIC [15]: 0.083 µM (≈ 0.172 µg/mL)
- MIC [16]: 8 µM (≈ 16.6 µg/mL)
- MIC (Escherichia coli HB101): 0.5 µM (≈ 1.04 µg/mL)
- MIC [17]: 4 µM (≈ 8.31 µg/mL)
- MIC (Escherichia coli JJ2489): 0.12 µM (≈ 0.249 µg/mL)
- MIC [18]: 1 µM (≈ 2.08 µg/mL)
- MIC (Klebsiella pneumoniae): 4 µM (≈ 8.31 µg/mL)
- MIC [19]: > 128 µM
- MIC [20]: ≥ 64 µM
SMILES: CC[C@H](C)[C@H](NC(=O)[C@H](CCCN=C(N)N)NC(=O)[C@@H](N)CCCN=C(N)N)C(=O)N[C@@H](CCCN=C(N)N)C(=O)N1CCC[C@H]1C(=O)N[C@@H](CCCN=C(N)N)C(=O)N1CCC[C@H]1C(=O)N1CCC[C@H]1C(=O)N[C@@H](CCCN=C(N)N)C(=O)N[C@@H](CC(C)C)C(=O)N1CCC[C@H]1C(=O)N[C@@H](CCCN=C(N)N)C(=O)N1CCC[C@H]1C(=O)N[C@@H](CCCN=C(N)N)C(=O)N1CCC[C@H]1C(=O)N[C@@H](CCCN=C(N)N)C(=O)O [RRIRPRPPRLPRPRPR]

- MIC [26]: 3.12 µM (≈ 5.97 µg/mL)
- MIC (Proteus vulgaris): 1.56 µM (≈ 2.98 µg/mL)
- MIC [27]: 6.25 µM (≈ 11.9 µg/mL)
- MIC [28]: 12.5 µM (≈ 23.9 µg/mL)
- MIC [29]: 0.78 µM (≈ 1.49 µg/mL)
- MIC [30]: 12.5 µM (≈ 23.9 µg/mL)
SMILES: CC[C@H](C)[C@H](NC(=O)[C@H](CCCCN)NC(=O)[C@H](CCCCN)NC(=O)[C@H](Cc1ccccc1)NC(=O)[C@H](CC(C)C)NC(=O)[C@H](CCCCN)NC(=O)[C@H](Cc1c[nH]c2ccccc12)NC(=O)[C@@H](N)CCCCN)C(=O)N1CCC[C@H]1C(=O)N[C@@H](Cc1cnc[nH]1)C(=O)N[C@@H](CC(C)C)C(=O)N[C@@H](C)C(=O)N[C@@H](CCCCN)C(=O)N[C@@H](CCCCN)C(=O)N[C@@H](Cc1ccccc1)C(N)=O [KWKLFKKIPHLAKKF]

- MIC [31]: ≥ 128 µM
- MIC [10]: 128 µM (≈ 393 µg/mL)
- MIC [19]: > 128 µM
SMILES: CC[C@H](C)[C@H](NC(=O)[C@H](C)NC(=O)[C@H](CCC(=O)O)NC(=O)[C@H](CO)NC(=O)[C@H](Cc1ccccc1)NC(=O)[C@H](CCCCN)NC(=O)[C@H](Cc1ccccc1)NC(=O)[C@H](CO)NC(=O)[C@H](CCC(=O)O)NC(=O)[C@H](C)NC(=O)[C@@H](NC(=O)[C@H](CCCCN)NC(=O)[C@H](CCCCN)NC(=O)[C@@H](NC(=O)[C@@H](NC(=O)[C@H](CC(=O)O)NC(=O)[C@H](Cc1ccccc1)NC(=O)[C@H](CC(C)C)NC(=O)CN)[C@@H](C)CC)[C@@H](C)CC)[C@@H](C)CC)C(=O)N[C@@H](CCCCN)C(=O)N[C@@H](CCCCN)C(=O)N[C@H](C(=O)N[C@H](C(=O)N[C@@H](CC(=O)O)C(=O)N[C@@H](Cc1ccccc1)C(=O)N[C@@H](CC(C)C)C(=O)NCC(=O)O)[C@@H](C)CC)[C@@H](C)CC [GLFDIIKKIAESFKFSEAIKKIIDFLG]
